Key:
MC38 cells = assay: MC38 mouse model of colon adenocarcinoma: tumor volume and survival; assay type: in vivo; conditions: MC38 tumor-bearing C57BL/6 mice
Description: Animals: Six to ten week-old female C57BL/6 mice were used in the studies as supplied by Beijing Vital River Laboratory Animal Technology Co., Ltd. Mice received food and water ad libitum. All animals were maintained in a controlled environment with 20-26° C. temperature, 40-70% humidity, and a light/dark cycle of 12 hours each. Up to 5 mice were kept in each cage. The study protocol and procedures involving the care and use of animals were reviewed and approved by the Institutional Animal Care and Use Committee (IACUC) to ensure compliance with the regulations of the Association for Assessment and Accreditation of Laboratory Animal Care (AAALAC).
Reagents and Antibodies: Anti-mouse PD-1 antibody (BioXcell; Lot No./Cat. No./clone: 665418F1/BP0146/RMP1-14) was supplied at a concentration of 7.83 mg/mL and maintained at 4° C. […]
Tumor volumes were measured on Day 10, Day 14, Day 17, Day 21, Day 23, Day 25, Day 28, Day 30, Day 32, Day 35, Day 37, Day 39, Day 42, Day 44, Day 46, Day 49 and Day 51 in two dimensions using a caliper, and the volume was expressed in mm^3 using the formula: V=0.5 a×b^2 where a and b are the length and width of the tumor, respectively.
Statistical Analysis: Data related to tumor volume are presented as mean and the standard error of the mean (SEM). […] Percentage tumor reduction was assessed on Day 23 by using the below formula: […]

[1] = system: pro-inflammatory cytokines and chemokines, including IL-18; assay: Cytokines and chemokines in the serum of treated animals; assay type: in vivo, mice; conditions: serum of animals treated with talabostat mesylate alone; data not shown
Description: Various cytokines and chemokines in the serum of animals treated with talabostat mesylate alone was also evaluated. […] IL-18 bridges the innate and adaptive immune systems through induction of IFNγ and OX40 (CD134) signaling pathway (Maxwell et al., Journal of Immunology, 2006, 177:234).

Substance: talabostat mesylate
- median survival (MC38 cells; same dosing as Table 4, vehicle control median survival 30 days): 35 days
- % Tumor Reduction compared to vehicle control on Day 23 (MC38 cells; talabostat mesylate 20 μg/mouse p.o. QD, anti-OX40 Ab 10 mg/kg i.p. twice weekly, anti-PD-1 Ab 5 mg/kg i.p. twice weekly, treatment from Day 11, Day 23): 8.16%
- pro-inflammatory cytokines and chemokines in serum, including IL-18 [1]: stimulated

Reference: patent US20220025061A1, “COMBINATION THERAPIES FOR TREATING DISEASE USING AN INNATE IMMUNITY MODIFIER AND AN OX40 AGONIST” (BioXcel Therapeutics, Inc., priority 2018, published 2022)
